Results on 21 compounds are retold here after ChEMBL document CHEMBL4813917, “2-((1-Phenyl-1H-1,2,3-triazol-4-yl)methyl)-2-azabicyclo[3.2.1]octan-3-one derivatives: Simplification and modification of aconitine scaffold for the discovery of novel anticancer agents” (Eur J Med Chem, 2021).

In one series the test system is PANC-1. The series can be described thus: Antiproliferative activity against human PANC-1 cells assessed as inhibition of cell proliferation measured after 24 hrs by MTT assay. The series is classed as functional, cell-based. To be noted: PANC-1, 24 h. (In general: Tetrazolium assays rely on reduction of a dye to a coloured formazan, in cell work by metabolically active cells.)

In a further series the test system is A549. Briefly: Antiproliferative activity against human A549 cells assessed as inhibition of cell proliferation measured after 24 hrs by MTT assay. The series is classed as functional, cell-based. To be noted: A549, 24 h.
The next series concerns OVCAR-3. Briefly: Antiproliferative activity against human OVCAR-3 cells assessed as inhibition of cell proliferation measured after 24 hrs by MTT assay. The series is classed as functional, cell-based. To be noted: OVCAR-3, 24 h.
The subject of another series is HepG2. The series can be described thus: Antiproliferative activity against human HepG2 cells assessed as inhibition of cell proliferation measured after 24 hrs by MTT assay. To be noted: HepG2, 24 h. The series is classed as functional, cell-based.
A further series has as its system LoVo. The series can be described thus: Antiproliferative activity against human LoVo cells assessed as inhibition of cell proliferation measured after 24 hrs by MTT assay. Format: functional, cell-based.
The test system of the next series is SGC-7901. The series can be described thus: Antiproliferative activity against human SGC-7901 cells assessed as inhibition of cell proliferation measured after 24 hrs by MTT assay. To be noted: SGC-7901, 24 h. The series is classed as functional, cell-based.
Series [1] is described as follows: Cytotoxicity against human GES1 cells assessed as reduction in cell viability measured after 24 hrs by MTT assay. Format: cell-based.
In series [2] the target is Heat shock protein HSP 90-alpha (Homo sapiens, UniProt P07900). Briefly: Inhibition of recombinant human N terminal his-tagged HSP90 alpha (1 to 732 residues) expressed in Escherichia coli measured after 60 mins by Flourescence polarization assay.
Series [3] in a line: Cytotoxicity against human MRC5 cells assessed as reduction in cell viability measured after 24 hrs by MTT assay. The series is classed as cell-based.
Series [4] in a line: Cytotoxicity against human IOSE80 cells assessed as reduction in cell viability measured after 24 hrs by MTT assay. The series is classed as cell-based.
The nature of series [5]: Cytotoxicity against human L02 cells assessed as reduction in cell viability measured after 24 hrs by MTT assay. The series is classed as cell-based.
Series [6] is described as follows: Cytotoxicity against human NCM460 cells assessed as reduction in cell viability measured after 24 hrs by MTT assay. The series is classed as cell-based.
Series [7] is described as follows: Cytotoxicity against human HPDE6c7 cells assessed as reduction in cell viability measured after 24 hrs by MTT assay. The series is classed as functional.

Broadly, the IC50 is the concentration that inhibits the measured activity by half. `COc1ccc(-n2cc(CN3C(=O)C[C@@H]4CC[C@@]3(C)C4(C)C)nn2)cc1`: the IC50 is 330 nM in the series on PANC-1; 50 nM with A549; 250 nM in the series with OVCAR-3; 100 nM in the series on HepG2; 70 nM in the series with LoVo; 480 nM with SGC-7901.

By CC50 is commonly meant the concentration at which the toxic effect on the cells reaches its halfway point. As for `CC1(C)[C@H]2CC[C@]1(C)N(Cc1cn(-c3ccccc3C#N)nn1)C(=O)C2`, the half-maximal inhibitory concentration (IC50) stood at 240 nM in the series with PANC-1; 7.99 nM in [2]; 100 nM with A549; 110 nM in the series with OVCAR-3; 180 nM in the series with HepG2; 140 nM in the series with LoVo. The IC50 in the series on SGC-7901 amounted to 260 nM. In addition, the cytotoxic concentration (CC50) at 24 h came to 9450 nM in series [1]; 23300 nM in [3]; 13800 nM in series [4]; 46100 nM in [5]; 37500 nM in [6]. The CC50 in [7] stood at 16000 nM.

As for `CC1(C)[C@H]2CC[C@]1(C)N(Cc1cn(-c3ccccc3)nn1)C(=O)C2`, the half-inhibitory concentration (IC50) with PANC-1 was determined as 160 nM; in [2] it was 34 nM; with A549, 70 nM; in the series with OVCAR-3, 50 nM; in the series with HepG2, 90 nM; with LoVo it was 50 nM. In the series on SGC-7901, the IC50 was 240 nM. Besides, the CC50 at 24 h in series [1] was found to be 6690 nM; in series [3], 9730 nM; in series [4] it was 23400 nM; in series [5] it was 6230 nM; in series [6], 19600 nM. Further, the CC50 in series [7] is more than 100000 nM.

`COc1cccc(-n2cc(CN3C(=O)C[C@@H]4CC[C@@]3(C)C4(C)C)nn2)c1`: the IC50 in the series on PANC-1 turned out to be 860 nM; in the series on A549 it was 240 nM; in the series on OVCAR-3, 280 nM; in the series with HepG2 it was 70 nM; in the series on LoVo it was 80 nM; in the series with SGC-7901 it was 590 nM.

On to `Cc1ccccc1-n1cc(CN2C(=O)C[C@@H]3CC[C@@]2(C)C3(C)C)nn1`, for which the IC50 in the series on PANC-1 was determined as 250 nM; in the series with A549, 90 nM; with OVCAR-3, 150 nM; in the series with HepG2, 150 nM; with LoVo, 80 nM; in the series on SGC-7901 it was 350 nM.

As to `CC1(C)[C@H]2CC[C@]1(C)N(Cc1cn(-c3ccccc3O)nn1)C(=O)C2`, the IC50 was 230 nM with PANC-1; 230 nM in the series on A549; 90 nM with OVCAR-3; 120 nM with HepG2; 540 nM in the series on LoVo; 410 nM in the series on SGC-7901.

For `Cc1cccc(-n2cc(CN3C(=O)C[C@@H]4CC[C@@]3(C)C4(C)C)nn2)c1`, the 50% inhibitory concentration (IC50) in the series on PANC-1 was 240 nM; in the series on A549, 50 nM; in the series on OVCAR-3 it was 160 nM; in the series on HepG2, 300 nM; with LoVo, 50 nM; in the series with SGC-7901, 410 nM.

Regarding `CC1(C)[C@H]2CC[C@]1(C)N(Cc1cn(-c3cccc(F)c3)nn1)C(=O)C2`, the IC50 in the series on PANC-1 stood at 220 nM; with A549 it was 180 nM; with OVCAR-3 it was 430 nM; with HepG2 it was 80 nM; with LoVo it was 90 nM; in the series with SGC-7901, 530 nM.

For the compound `CC1(C)[C@H]2CC[C@]1(C)N(Cc1cn(-c3ccc(Cl)cc3)nn1)C(=O)C2`, the IC50 in the series with PANC-1 was 440 nM; with A549, 70 nM; with OVCAR-3, 160 nM; in the series with HepG2, 90 nM; in the series with LoVo it was 160 nM; in the series with SGC-7901 it was 410 nM.

`Cc1ccc(-n2cc(CN3C(=O)C[C@@H]4CC[C@@]3(C)C4(C)C)nn2)cc1`: the half-maximal inhibitory concentration (IC50) in the series with PANC-1 came to 270 nM; in the series on A549, 400 nM; in the series on OVCAR-3 it was 40 nM; with HepG2 it was 480 nM; in the series with LoVo it was 50 nM; with SGC-7901 it was 390 nM.

Take `CC1(C)[C@H]2CC[C@]1(C)N(Cc1cn(-c3ccccc3Cl)nn1)C(=O)C2`: the concentration for half-maximal inhibition (IC50) in the series on PANC-1 came to 270 nM; in series [2], 3.28 nM; in the series with A549 it was 70 nM; with OVCAR-3 it was 40 nM; in the series on HepG2, 60 nM; with LoVo it was 190 nM. Moreover, the IC50 in the series on SGC-7901 turned out to be 220 nM. Further, the CC50 at 24 h worked out at 5370 nM in [1]; 4130 nM in series [3]; 13400 nM in [4]; 20100 nM in series [5]; 10800 nM in [6]. The cytotoxic concentration (CC50) in series [7] was 3940 nM.

With `CC1(C)[C@H]2CC[C@]1(C)N(Cc1cn(-c3ccc(Br)cc3)nn1)C(=O)C2`, the 50% inhibitory concentration (IC50) came out at 200 nM in the series with PANC-1; 80 nM with A549; 140 nM in the series with OVCAR-3; 110 nM with HepG2; 60 nM in the series with LoVo; 450 nM in the series with SGC-7901.

With `COc1ccccc1-n1cc(CN2C(=O)C[C@@H]3CC[C@@]2(C)C3(C)C)nn1`, the concentration for half-maximal inhibition (IC50) turned out to be 120 nM with PANC-1; 350 nM with A549; 140 nM in the series on OVCAR-3; 110 nM with HepG2; 70 nM in the series on LoVo; 280 nM in the series on SGC-7901.

With `CC1(C)[C@H]2CC[C@]1(C)N(Cc1cn(-c3cccc(O)c3)nn1)C(=O)C2`, the concentration for half-maximal inhibition (IC50) amounted to 280 nM in the series with PANC-1; 180 nM in the series with A549; 370 nM in the series on OVCAR-3; 70 nM with HepG2; 410 nM in the series with LoVo; 270 nM in the series on SGC-7901.

With `CC1(C)[C@H]2CC[C@]1(C)N(Cc1cn(-c3ccc(O)cc3)nn1)C(=O)C2`, the IC50 in the series with PANC-1 turned out to be 100 nM; in the series with A549, 140 nM; in the series with OVCAR-3, 410 nM; in the series with HepG2 it was 80 nM; in the series with LoVo, 410 nM; in the series on SGC-7901, 330 nM.

As for `CC1(C)[C@H]2CC[C@]1(C)N(Cc1cn(-c3ccc(F)cc3)nn1)C(=O)C2`, the IC50 in the series on PANC-1 came to 110 nM; in the series with A549, 230 nM; with OVCAR-3, 200 nM; in the series on HepG2, 90 nM; in the series with LoVo it was 40 nM; with SGC-7901, 500 nM.

On to `CC1(C)[C@H]2CC[C@]1(C)N(Cc1cn(-c3ccccc3Br)nn1)C(=O)C2`, for which the IC50 in the series on PANC-1 was determined as 280 nM; in the series with A549, 130 nM; in the series on OVCAR-3, 140 nM; in the series on HepG2 it was 150 nM; with LoVo, 60 nM; with SGC-7901, 500 nM.

Take `CC1(C)[C@H]2CC[C@]1(C)N(Cc1cn(-c3ccc(C#N)cc3)nn1)C(=O)C2`: the 50% inhibitory concentration (IC50) with PANC-1 was 250 nM; in [2], 21.8 nM; with A549, 140 nM; in the series on OVCAR-3, 380 nM; in the series on HepG2 it was 50 nM; in the series with LoVo it was 90 nM. In addition, the IC50 in the series with SGC-7901 turned out to be 500 nM. Also, the CC50 at 24 h in series [1] was determined as 11200 nM; in series [3], 10800 nM; in series [4], 5520 nM; in series [5], 15700 nM; in [6] it was 8140 nM. The half-maximal cytotoxic concentration (CC50) in series [7] was more than 100000 nM.

On to `CC1(C)[C@H]2CC[C@]1(C)N(Cc1cn(-c3ccccc3F)nn1)C(=O)C2`, for which the concentration for half-maximal inhibition (IC50) turned out to be 150 nM in the series on PANC-1; 2.68 nM in [2]; 240 nM in the series on A549; 300 nM with OVCAR-3; 60 nM in the series with HepG2; 40 nM with LoVo. For the same compound, the half-inhibitory concentration (IC50) with SGC-7901 turned out to be 300 nM. Moreover, the cytotoxic concentration (CC50) at 24 h in [1] amounted to 5160 nM; in series [3] it was 15100 nM; in series [4], 19200 nM; in series [5] it was 13300 nM; in series [6] it was 5260 nM. In [7], the CC50 turned out to be 26200 nM.

As to `CC1(C)[C@H]2CC[C@]1(C)N(Cc1cn(-c3cccc(C#N)c3)nn1)C(=O)C2`, the IC50 stood at 260 nM in the series on PANC-1; 440 nM in the series on A549; 230 nM with OVCAR-3; 40 nM in the series with HepG2; 320 nM in the series on LoVo; 250 nM in the series with SGC-7901.

Turning to `CC1(C)[C@H]2CC[C@]1(C)N(Cc1cn(-c3cccc(Cl)c3)nn1)C(=O)C2`, the 50% inhibitory concentration (IC50) with PANC-1 came to 260 nM; in [2] it was 7.38 nM; in the series on A549, 60 nM; in the series on OVCAR-3 it was 50 nM; in the series on HepG2, 60 nM; in the series with LoVo, 70 nM. In addition, the 50% inhibitory concentration (IC50) in the series with SGC-7901 was determined as 510 nM. Moreover, the CC50 at 24 h was 69800 nM in series [1]; 8840 nM in series [3]; 13500 nM in series [4]; 8510 nM in series [5]; 8410 nM in series [6]. The CC50 in series [7] amounted to 13000 nM.
